Holding throughout (type): cell-based
Data set [1] deals with Escherichia coli (ATCC 25922). As to the kind of experiment: Antimicrobial activity, MBC, E. coli ATCC 25922. As to conditions: 1 h at room temperature. The method, then: (§1) To determine antimicrobial activity of compounds of the present disclosure, Escherichia coli (ATCC 25922), Staphylococcus aureus (ATCC 29213), Pseudomonas aeruginosa (ATCC 27853), and Candida albicans (ATCC 10231) were used in primary screening. In addition, Escherichia coli (MCC 80392), Staphylococcus aureus (MCC 91731), Pseudomonas aeruginosa (MCC 4438), and Candida albicans (MCC 50319), provided by Alcon Laboratories, Fort Worth, Tex., were used. The microbial cultures were diluted in sterile saline pH 4 to prepare inocula. Test compounds were titrated by stepwise two-fold dilutions in sterile saline pH 4. A total of 1.0×10^5 to 1.0×10^6 Colony Forming Units (CFU)/mL microbe was added to each tube, mixed by gentle vortexing, and then incubated at room temperature for 1 h. Microbial plating on Petri dishes (Tryptic Soy agar or Saboraud's Dextrose agar) was performed immediately after the designated exposure after neutralization of the test article dilutions in Dey-Engley Broth. Plates were incubated at 37° C., and the numbers of microbes were counted by direct colony count to quantitate the surviving microbes as CFU/mL. Positive growth controls were made with sterile 0.9% saline. Compounds were dissolved in unbuffered isotonic saline (SAL) or phosphate buffered saline (PBS) at pH 4 or pH 7 (using HCl and/or NaOH as needed). All compounds were tested three times. The results are tabulated to show the comparison of antimicrobial effectiveness range of the compounds. Data shown are the Minimum Bactericidal Concentration (MBC) or Minimum Fungicidal Concentration (MFC) (≧99.9% kill) in μg/mL.

The subject of data set [2] is Staphylococcus aureus (ATCC 29213). As to the kind of experiment: Antimicrobial activity, MBC, S. aureus ATCC 29213. As to conditions: 1 h at room temperature. The method, then:
as §1

Data set [3] has as its system Candida albicans (ATCC 10231). Description: Antimicrobial activity, MFC, C. albicans ATCC 10231. As to conditions: 1 h at room temperature. As for the experimental part: as §1
The test system of data set [4] is Pseudomonas aeruginosa (ATCC 27853). Description: Antimicrobial activity, MBC, P. aeruginosa ATCC 27853. The following applies: pH 7 (PBS), 1 h at room temperature. The method, then:
as §1, with “The results are tabulated to show the comparison of antimicrobial effectiveness range of the compounds. Data shown are the Minimum Bactericidal Concentration (MBC) or Minimum Fungicidal Concentration (MFC) (≧99.9% kill) in μg/mL.” left out

The subject of data set [5] is Escherichia coli (MCC 80392). As to the kind of experiment: Antimicrobial activity, MBC, E. coli MCC 80392. As to conditions: 1 h at room temperature. The method, then:
as §1, with “The results are tabulated to show the comparison of antimicrobial effectiveness range of the compounds. Data shown are the Minimum Bactericidal Concentration (MBC) or Minimum Fungicidal Concentration (MFC) (≧99.9% kill) in μg/mL.” left out

The subject of data set [6] is Staphylococcus aureus (MCC 91731). As to the kind of experiment: Antimicrobial activity, MBC, S. aureus MCC 91731. As to conditions: 1 h at room temperature. As for the experimental part: as §1, with “The results are tabulated to show the comparison of antimicrobial effectiveness range of the compounds. Data shown are the Minimum Bactericidal Concentration (MBC) or Minimum Fungicidal Concentration (MFC) (≧99.9% kill) in μg/mL.” left out

In data set [7] the test system is Candida albicans (MCC 50319). As to the kind of experiment: Antimicrobial activity, MFC, C. albicans MCC 50319. As to conditions: 1 h at room temperature. The method, then: as §1, with “The results are tabulated to show the comparison of antimicrobial effectiveness range of the compounds. Data shown are the Minimum Bactericidal Concentration (MBC) or Minimum Fungicidal Concentration (MFC) (≧99.9% kill) in μg/mL.” left out

The test system of data set [8] is mouse fibroblast cells (ATCC CCL-1, L929). Description: Cytotoxicity, WST-8 colorimetric assay. As to conditions: pH 4 (Sal), 60 min exposure, WST-8 read after 18-20 hours. The method, then: Cytotoxicity is assessed by a colorimetric assay system using the Dojindo™ cell counting kit containing 2-(2-methoxy-4-nitrophenyl)-3-(4-nitrophenyl)-5-(2,4-disulfophenyl)-2H-tetrazolium, monosodium salt (WST-8). In this assay, the WST-8 reagent is bioreduced by cellular dehydrogenases to a formazan product that is highly soluble in tissue culture medium. The orange formazan, which is produced only by live cells, is a direct measure of cell viability and can be read spectrophotometrically (e.g., evaluation of a soluble tetrazolium/formazan assay for cell growth and drug sensitivity in culture using human and other tumor cell lines is described by D. A. Scudiero et al., Cancer Res., 48(17), 4827-33 (1988). Similar approaches for determining the cell viability are known in the art.
In a standard assay, mouse fibroblast cells (ATCC CCL-1, L929), are cultured in Minimum Essential Medium, α-medium supplemented with 10% heat inactivated fetal bovine serum, L-glutamine, penicillin and streptomycin. Cells are trypsinized and counted under the microscope and seeded at 1.5×10^4 total cells per 100 μL per well of a flat-bottom 96-well plate in order to achieve ˜80% confluence after overnight incubation at 37° C. […]
Test articles were prepared as 2-fold serial dilutions and 170 μL of each dilution was added into each of 4-wells (total volume per well=200 μL). […] Absorbance was read at 450 nm with reference wavelength at 750 nm using Molecular Device SpectraMax M5 plate reader. […]
The CT50 value for each compound was calculated from the absorbance values (A450/750) and is defined as the concentration of test article that results in survival of 50% of the cells following treatment. The absorbance A450/750 from each well of untreated cells and from each well within the dilution series was measured. […] Next, a non-linear regression (curve fit) analysis was performed on all the absorbance data measured from the dilution series, including the absorbance data obtained from wells of the untreated control cells. […]
For orientation: Tetrazolium dyes change colour on reduction, which living cells bring about.

Turning to “2-(3-Chloro-4,4-dimethyl-2,5-dioxoimidazolidin-1-yl)-N,N,N-trimethylethanaminium chloride [Compound 22-48]”, the “Minimum Bactericidal Concentration (MBC) (≧99.9% kill)” value was 128 µg/mL in data set [1] (pH 4 (Sal)), 4 µg/mL in data set [1] (pH 7 (PBS)), above 128 µg/mL in data set [2] (pH 4 (Sal)) and 16 µg/mL in data set [2] (pH 7 (PBS)). The “Minimum Fungicidal Concentration (MFC) (≧99.9% kill)” value in data set [3] (pH 4 (Sal)) was 1024 µg/mL; in data set [3] (pH 7 (PBS)), 128 µg/mL.
`CC1(CS(=O)(=O)O)COC(=O)N1Cl` (centres unmarked) [Compound 22-01, (3-chloro-4-methyl-2-oxooxazolidin-4-yl)methanesulfonic acid]: the “Minimum Bactericidal Concentration (MBC) (≧99.9% kill)” value was 256 µg/mL in data set [1] (pH 4 (Sal)); 128 µg/mL in data set [1] (pH 7 (PBS)); 256 µg/mL in data set [2] (pH 4 (Sal)); 256 µg/mL in data set [2] (pH 7 (PBS)); 256 µg/mL in data set [4]; 2 µg/mL in data set [5] (pH 4 (Sal)). The “Minimum Bactericidal Concentration (MBC) (≧99.9% kill)” value in data set [5] (pH 7 (PBS)), in data set [6] (pH 4 (Sal)) and in data set [6] (pH 7 (PBS)) was 16 µg/mL in each case. In addition, the “Minimum Fungicidal Concentration (MFC) (≧99.9% kill)” value is above 512 µg/mL in data set [3] (pH 4 (Sal)), 1024 µg/mL in data set [3] (pH 7 (PBS)), 128 µg/mL in data set [7] (pH 4 (Sal)) and 128 µg/mL in data set [7] (pH 7 (PBS)). Further, the “CT50 (concentration of test article that results in survival of 50% of the cells)” value in data set [8] was 1.1 mM.
As for `CC1(C[N+](C)(C)C)COC(=O)N1Cl.[Cl-]` (centres unmarked) [Compound 22-04, 1-(3-Chloro-4-methyl-2-oxooxazolidin-4-yl)-N,N,N-trimethylmethanaminium chloride], the “Minimum Bactericidal Concentration (MBC) (≧99.9% kill)” value is 16 µg/mL in data set [1] (pH 4 (Sal)) and 64 µg/mL in data set [2] (pH 4 (Sal)). Also, the “Minimum Fungicidal Concentration (MFC) (≧99.9% kill)” value in data set [3] (pH 4 (Sal)) is above 256 µg/mL.
For `CN1C(=O)N(Cl)C(C)(C[N+](C)(C)C)C1=O.[Cl-]` (centres unmarked) [Compound 22-27, 1-(3-chloro-1,4-dimethyl-2,5-dioxoimidazolidin-4-yl)-N,N,N-trimethylmethanaminium chloride], in that order: 16 µg/mL, 64 µg/mL and above 256 µg/mL.
For the molecule `C[N+]1(C)CCC2(CC1)CN(Cl)C(=O)O2.[Cl-]` [Compound 22-36, 3-chloro-8,8-dimethyl-2-oxo-1-oxa-3-aza-8-azoniaspiro[4.5]decane chloride], the “Minimum Bactericidal Concentration (MBC) (≧99.9% kill)” value in data set [1] (pH 4 (Sal)) is 256 µg/mL; in data set [1] (pH 7 (PBS)), 16 µg/mL; in data set [2] (pH 4 (Sal)), 512 µg/mL; in data set [2] (pH 7 (PBS)), 32 µg/mL. In addition, the “Minimum Fungicidal Concentration (MFC) (≧99.9% kill)” value in data set [3] (pH 7 (PBS)) was 256 µg/mL. In data set [8], the “CT50 (concentration of test article that results in survival of 50% of the cells)” value is 0.7 mM.
Consider `CC[N+](C)(C)CC1(C)COC(=O)N1Cl.[Cl-]` (centres unmarked) [Compound 22-38, N-((3-chloro-4-methyl-2-oxooxazolidin-4-yl)methyl)-N,N-dimethylethanaminium chloride], for which the “Minimum Bactericidal Concentration (MBC) (≧99.9% kill)” value was 16 µg/mL in data set [1] (pH 4 (Sal)), 2 µg/mL in data set [1] (pH 7 (PBS)), 64 µg/mL in data set [2] (pH 4 (Sal)) and 4 µg/mL in data set [2] (pH 7 (PBS)). Also, in data set [3] (pH 7 (PBS)), the “Minimum Fungicidal Concentration (MFC) (≧99.9% kill)” value came out at 8 µg/mL. In data set [8], the “CT50 (concentration of test article that results in survival of 50% of the cells)” value is listed as 0.86 mM.

(Values after patent publication US8722715B2, “Antimicrobial oxazolidinone, hydantoin and imidazolidinone compositions” (NovaBay Pharmaceuticals, priority 2008, dated 2014).)
